Like-named read-outs stand apart in the source and are kept apart here.
Tests used:
[1] = tested on: HBV; assay: Cell culture assay for anti-HBV activity (2.2.15 cells, HBV DNA in medium by Southern blot); assay type: cell-based, Hepatitis B virus; settings: for Antiviral activity (in words): virus not named
From the text: We follow the protocol described by Korba and Gerin(Antiviral Res., 1992, 19:55) and Pai et al. (Antimicrobial Agents Chemother., 1996, 40:380) which is used widely in the field. The HepG 2 2.2.15 cells contain a stably integrated HBV genome, the transcript from which serves as a template for viral replication. The cells produce virions which are elaborated into the medium. The production of the virion DNA is monitored by analysis of medium by Southern blotting. Drugs which inhibit viral replication reduce the levels of virion DNA in the medium, relative to controls.
Confluent cells in 24 well tissue culture dishes are treated with test compounds starting at 1 nM and extending logarithmically to 10 μM (1 nM, 3.2, 10 nM, 32, 100 nM, 1 μM, 10 μM […]). Medium is changed […] every 3 days and DNA extracted from the 3, 6, and […] day samples. The virions are concentrated by polyethylene glycol precipitation (equal volume addition of PEG 8000). After cooling on ice the samples are spun and the pellets treated with SDS and Proteinase K followed by Phenol:Chloroform extraction and ethanol precipitation of the DNA. The DNA is analyzed for HBV sequences by Southern hybridization. The probe used for the analysis is a ^32P labeled Eco RI fragment from the HBV clone described by Korba et al. 3TC is used as a positive control compound with known activity against HBV.
System: The most widely used system for the study of anti-HBV agents is the hepatoma cell culture system with the HBV genome. These cells are designated as the 2.2.15 cells, AD38 cells and AD79 cells. The 2.2.15 cells were generated by the transfection of the human hepatoma cells—HepG2 with HBV DNA. (Sells, et al., Proc. Natl. Acad. Sci. USA 84:1005–1009, 1987) HBV viral replication takes place in these cells. The HBV replication can be monitored intracellularly as well as extracellularly in these cells.
Assay for Anti-HBV agents: 2.215 cells are grown in multi-well dishes in RPMI medium supplemented with 4% fetal bovine serum. After 3 to 4 days of growing the cells, they are treated with varying concentrations of the test compound(s). The test compounds are dissolved in DMSO or sterile water. Cultures without the addition of the test compounds serve as controls. The addition of the test compound(s) is repeated at 3-day intervals. The medium is changed and replaced with appropriate concentration of the test compound. At the end of the 9-day treatment period, the culture medium is harvested and processed for viral DNA. The viral DNA thus obtained is analyzed by Southern blot analysis. After the Southern transfer, the blot is subjected to hybridization to an HBV specific probe to detect HBV DNA. The hybriodization is carried out overnight. After the hybridization, free probe is removed by washing of the blots. The specific hybridization is visualized by autoradiography. Inhibition produced by the test compound is calculated with reference to the levels of HBV DNA in the control samples.

[2] = tested on: HIV-1; assay: Anti-HIV evaluation in human PBM cells; assay type: cell-based; settings: for EC50: HIV-1
From the text: (§1) Human PBM cells from healthy donors, seronegative for HIV-1 and HBV, are isolated by a single-step Ficoll-Hypaque discontinuous gradient centrifugation and propagated as described previously (Schinazi et al., Antimicrobial Agents Chemother., 1990, 34:1061; 1992, 36:2423; 1993, 37:875). Compounds are screened for activity against HIV-1 and cytotoxicity by a protocol reported previously reported by Schinazi, et al. The prototype strain of HIV-1LAI obtained from the Centers for Disease Control and Prevention, Atlanta, Ga., is used as the standard virus for the studies in human PBM cells.

[3] = Cytotoxicity in PBM cells; assay type: cell-based, human; settings: human
Method: (§2) We also perform toxicity assays by measuring the inhibition of uptake of […] dye by treated cells. These assays are done in 96 well plates. After the standard 10 day treatment regimen medium is removed and PBS containing MTS dye added to each well. After a 2 hour incubation the absorbance of the metabolized product is measured at 490 nm.
as §1

[4] = Cytotoxicity in Vero cells; assay type: cell-based; settings: African green monkey
Method: as §2

[5] = Cytotoxicity in CEM cells; assay type: cell-based; settings: human
Method: as §2

[6] = Cytotoxicity in HepG2 cells; assay type: cell-based; settings: human
Method: as §2

[7] = tested on: PBM cells; assay: Cytotoxicity in PBM cells; assay type: cell-based, human
Method: as §2, §1

[8] = tested on: HIV; settings: literature; cited from earlier work
[9] = Hepatitis B virus, read-out: Anti-HBV EC50
[10] = Human immunodeficiency virus 1, PBMC

SMILES | EC50 [1, 9] [µM] | EC50 [2, 10] [µM] | IC50 [3] [µM] | IC50 at 10 day [4] [µM] | IC50 at 10 day [5] [µM] | Inhibition of HBV replication (in words) [1] | Inhibition of HIV replication (in words) [2] | IC50 at 10 day [6] [µM] | EC50 ([1]; read-out: Anti-HBV EC50) [µM] | Antiviral activity (in words) [1] | EC50 [2] [µM] | IC50 [7] [µM] | Activity against HIV (in words) [8] | EC50 ([1]; Hepatitis B virus, read-out: Anti-HBV EC50 (μM)) [µM]
Cc1cn(C2CC(CCl)C(CO)O2)c(=O)[nH]c1=O (stereo not drawn) [Compound 3 (Series 1)] | > 10 | > 100 | > 100 | > 100 | – | – | – | – | – | – | – | – | – | –
Cc1cn(C2CC(CI)C(CO)O2)c(=O)[nH]c1=O (stereo not drawn) [Compound 5 (Series 1)] | > 10 | > 100 | > 100 | > 100 | – | – | – | – | – | – | – | – | – | –
Cc1cn(C2OC(CO)C(N(C)O)[C@@H]2F)c(=O)[nH]c1=O (stereo partly drawn) [Compound 55 (Series 2)] | > 10 | 68 | > 100 | > 100 | > 100 | – | – | – | – | – | – | – | – | –
CN(O)C1C(CO)OC(n2ccc(N)nc2=O)[C@H]1F (stereo partly drawn) [Compound 58 (Series 2)] | 0.65 | 0.09 | 7.4 | ~106 | 40.2 | potent inhibitors | potent inhibitors | > 100 | – | – | – | – | – | –
Cc1cn(C2OC(CO)C(CO)C2F)c(=O)[nH]c1=O (stereo not drawn) [Compound 12 (Series 2)] | – | – | – | > 100 | > 100 | – | – | – | < 10 | moderate activities | > 100 | > 100 | – | –
Cc1cn(C2CC(CO)C(CO)O2)c(=O)[nH]c1=O (stereo not drawn) [Compound 20 (Series 1)] | – | – | > 100 | > 100 | > 100 | – | – | – | 0.23 | moderate activity | 0.8 | – | – | –
Nc1ccn(C2OC(CO)C(CCO)C2F)c(=O)n1 (stereo not drawn) [Compound 24 (Series 2)] | > 10 | > 100 | > 100 | > 100 | > 100 | – | – | – | – | – | – | – | – | –
CCCCN(O)C1C(CO)OC(n2cc(C)c(=O)[nH]c2=O)C1F (stereo not drawn) [Compound 71 (Series 2)] | < 10 | 81.4 | 13 | 68.5 | 30.1 | – | – | – | – | moderate activities | – | – | – | –
CC1=CC(C2CC(CO)N(C)O2)C(=O)NC1=O (stereo not drawn) [Compound 5 (Series 2)] | > 10 | > 100 | > 100 | – | – | – | – | – | – | – | – | – | – | –
Nc1ncnc2c1ncn2[C@H]1C[C@H](CO)[C@@H](CO)O1 [2′,3′-dideoxy-3′-hydroxymethyl-adenosine] | – | – | – | – | – | – | – | – | – | – | – | – | good activity | –
Cc1cn(C2OC(CO)C(C)C2F)c(=O)[nH]c1=O (stereo not drawn) [Compound 22 (Series 2)] | > 10 | > 100 | > 100 | > 100 | > 100 | – | – | – | – | – | – | – | – | –
Nc1ccn(C2OC(CO)C(CO)C2F)c(=O)n1 (stereo not drawn) [Compound 7 (Series 2)] | 0.04 | 2.6 | 48.8 | 56 | 5.1 | potent inhibitors | potent inhibitors | > 100 | – | – | – | – | – | –
Cc1cn(C2CC(CO)=NO2)c(=O)[nH]c1=O (stereo not drawn) [Compound 28 (Series 2)] | > 10 | > 100 | > 100 | > 100 | > 100 | – | – | – | – | – | – | – | – | –
CN(O)C1C(CO)OC(n2cc(F)c(=O)[nH]c2=O)C1F (stereo not drawn) [Compound 60 (Series 2)] | > 10 | > 100 | > 100 | > 100 | > 100 | – | – | – | – | – | – | – | – | –
CCOP(=O)(CCC1=NOC(n2cc(C)c(=O)[nH]c2=O)C1)OCC (stereo not drawn) [Compound 33 (Series 2)] | – | > 100 | > 100 | > 100 | > 100 | – | – | – | – | – | – | – | – | > 10
Cc1cn(C2CC(CO)N(C)O2)c(=O)[nH]c1=O (stereo not drawn) [Compound 6 (Series 2)] | > 10 | > 100 | > 100 | > 100 | > 100 | – | – | – | – | – | – | – | – | –
CC1C(CO)OC(n2cc(F)c(N)nc2=O)C1F (stereo not drawn) [Compound 21 (Series 2)] | > 10 | > 100 | > 100 | > 100 | > 100 | – | – | – | – | – | – | – | – | –
Cc1cn(C2OC(CO)C(CO)C2F)c(=O)[nH]c1=O (stereo not drawn) [Compound 1 (Series 2)] | > 10 | > 100 | > 100 | – | – | – | – | – | – | – | – | – | – | –
CNC1C(CO)OC(n2cc(C)c(=O)[nH]c2=O)C1F (stereo not drawn) [Compound 68 (Series 2)] | > 10 | > 100 | > 100 | > 100 | > 100 | – | – | – | – | – | – | – | – | –
Nc1ncnc2c1ncn2C1OC(CO)C(CO)C1F (stereo not drawn) [Compound 23 (Series 2)] | 1.04 | 95.4 | > 100 | > 100 | > 100 | – | – | > 100 | – | – | – | – | – | –
CNC1C(CO)OC(n2ccc(=O)[nH]c2=O)C1F (stereo not drawn) [Compound 69 (Series 2)] | > 10 | > 100 | > 100 | > 100 | > 100 | – | – | – | – | – | – | – | – | –
CN1OC(n2ccc(N)nc2=O)CC1CO (stereo not drawn) [Compound 39 (Series 2)] | > 10 | > 100 | > 100 | > 100 | > 100 | – | – | – | – | – | – | – | – | –
Cc1cn(C2CC3COCC3O2)c(=O)[nH]c1=O (stereo not drawn) [Compound 1 (Series 1)] | > 10 | > 100 | > 100 | > 100 | – | – | – | – | – | – | – | – | – | –
Nc1nc(=O)n(C2OC(CO)C(CO)C2F)cc1F (stereo not drawn) [Compound 10 (Series 2)] | 0.13 | 3.3 | > 100 | > 100 | > 100 | potent inhibitors | potent inhibitors | > 100 | – | – | – | – | – | –
CC1C(CO)OC(n2ccc(N)nc2=O)C1F (stereo not drawn) [Compound 20 (Series 2)] | > 10 | > 100 | > 100 | > 100 | > 100 | potent inhibitors | potent inhibitors | – | – | – | – | – | – | –
Cc1cn(C2OC(CO)C(CO)C2F)c(=O)nc1N (stereo not drawn) [Compound 2 (Series 2)] | > 10 | > 100 | > 100 | > 100 | – | – | – | – | – | – | – | – | – | –
O=c1ccn(C2OC(CO)C(CO)C2F)c(=O)[nH]1 (stereo not drawn) [Compound 13 (Series 2)] | > 10 | > 100 | > 100 | > 100 | > 100 | – | – | – | – | – | – | – | – | –
CN(O)C1C(CO)OC(n2ccc(N)nc2=O)C1F (stereo not drawn) [Compound 59 (Series 2)] | ≤ 10 | 0.49 | > 100 | > 100 | 65.3 | potent inhibitors | potent inhibitors | > 100 | – | – | – | – | – | –
CNC1C(CO)OC(n2ccc(N)nc2=O)C1F (stereo not drawn) [Compound 70 (Series 2)] | ≤ 10 | 2.4 | > 100 | > 100 | 109 | potent inhibitors | potent inhibitors | – | – | – | – | – | – | –

Source: patent publication US7094770B2, “3′-or 2′-hydroxymethyl substituted nucleoside derivatives for treatment of hepatitis virus infections” (Pharmasset, Ltd., priority 2000, dated 2006)
